“And” between values parts separate entries of the source, which are not always exact repeats. Identical values can stand only once. Inconclusive results and toxic doses are left out.
Test system: L1210 leukemia ip in BDF1 mice, survival T/C
Test: NCI In Vivo Anticancer Drug Screen. Data for tumor model L1210 Leukemia (intraperitoneal) in B6D2F1 (BDF1) mice
Settings: endpoint: mean survival time, higher = longer survival
Summary of the method: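 Tumor cells were implanted, animals were treated, and survival was followed. The result divides the treated measurement by the vehicle-control measurement.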

[1] = dose: 100.0 mg/kg/injection, schedule: Q01DX001 (ip), vehicle: Klucel (hydroxypropylcellulose) (HPC)
[2] = dose: 100.0 mg/kg/injection, schedule: Q04DX003 (ip), vehicle: Klucel (hydroxypropylcellulose) (HPC)
[3] = dose: 200.0 mg/kg/injection, schedule: Q01DX001 (ip), vehicle: Klucel (hydroxypropylcellulose) (HPC)
[4] = dose: 200.0 mg/kg/injection, schedule: Q04DX003 (ip), vehicle: Klucel (hydroxypropylcellulose) (HPC)
[5] = dose: 400.0 mg/kg/injection, schedule: Q01DX001 (ip), vehicle: Klucel (hydroxypropylcellulose) (HPC)
[6] = dose: 400.0 mg/kg/injection, schedule: Q04DX003 (ip), vehicle: Klucel (hydroxypropylcellulose) (HPC)
[7] = dose: 100.0 mg/kg/injection, schedule: Q01DX005 (ip), vehicle: saline
[8] = dose: 200.0 mg/kg/injection, schedule: Q01DX005 (ip), vehicle: saline
[9] = dose: 100.0 mg/kg/injection, schedule: Q01DX001 (ip), vehicle: saline
[10] = dose: 200.0 mg/kg/injection, schedule: Q01DX001 (ip), vehicle: saline
[11] = dose: 400.0 mg/kg/injection, schedule: Q01DX001 (ip), vehicle: saline
[12] = dose: 75.0 mg/kg/injection, schedule: Q01DX001 (ip), vehicle: carboxymethylcellulose (CMC)

Q: How did the T/C (dose: 0.04 mg/kg/injection, schedule: Q01DX009 (ip), vehicle: saline) turn out when `O=C1C(NCCO)=C(N2CC2)C(=O)C(NCCO)=C1N1CC1` was run?
A: 115 % of control

Q: And the T/C (dose: 0.09 mg/kg/injection, schedule: Q01DX009 (ip), vehicle: saline)?
A: 111 % of control

Q: And the T/C (dose: 0.09 mg/kg/injection, schedule: Q04DX003 (ip), vehicle: saline)?
A: 121 % of control

Q: What about the T/C (dose: 0.18 mg/kg/injection, schedule: Q01DX009 (ip), vehicle: saline) of the same compound?
A: 159 % of control and 164 % of control and 195 % of control

Q: And the T/C (dose: 0.18 mg/kg/injection, schedule: Q04DX003 (ip), vehicle: saline)?
A: 120 % of control

Q: And the T/C (dose: 0.19 mg/kg/injection, schedule: Q01DX009 (ip), vehicle: saline)?
A: 153 % of control

Q: And the T/C (dose: 0.37 mg/kg/injection, schedule: Q01DX001 (ip), vehicle: saline)?
A: 103 % of control

Q: And the T/C (dose: 0.37 mg/kg/injection, schedule: Q01DX009 (ip), vehicle: saline)?
A: 157 % of control and 164 % of control and 212 % of control

Q: What about the T/C (dose: 0.37 mg/kg/injection, schedule: Q04DX003 (ip), vehicle: saline) of the same compound?
A: 155 % of control and 157 % of control

Q: And the T/C (dose: 0.38 mg/kg/injection, schedule: Q01DX009 (ip), vehicle: saline)?
A: 184 % of control

Q: What about the T/C (dose: 0.75 mg/kg/injection, schedule: Q04DX003 (ip), vehicle: saline) of the same compound?
A: 170 % of control and 231 % of control

Q: And the T/C (dose: 1.5 mg/kg/injection, schedule: Q01DX001 (ip), vehicle: saline)?
A: 275 % of control

Q: And the T/C (dose: 1.5 mg/kg/injection, schedule: Q04DX003 (ip), vehicle: saline)?
A: 160 % of control and 164 % of control and 186 % of control

Q: What about the T/C (dose: 1.56 mg/kg/injection, schedule: Q04DX003 (ip), vehicle: saline) of the same compound?
A: 103 % of control

Q: What about the T/C (dose: 3.0 mg/kg/injection, schedule: Q04DX003 (ip), vehicle: saline) of the same compound?
A: 104 % of control and 115 % of control

Q: With `N#Cc1c(N)n(C2OC(CO)C(O)C2O)c2ncnc(N)c12` (centres undefined) as the compound, how does the T/C (dose: 1.0 mg/kg/injection, schedule: Q01DX005 (ip), vehicle: saline) read?
A: 115 % of control

Q: And the T/C (dose: 2.0 mg/kg/injection, schedule: Q01DX005 (ip), vehicle: saline)?
A: 120 % of control

Q: Which T/C [1] does the source give for `CN(C=O)c1cccc(C(=O)O)c1` here?
A: 96 % of control

Q: What about the T/C [2] of the same compound?
A: 103 % of control

Q: What about the T/C [3] of the same compound?
A: 94 % of control

Q: What about the T/C [4] of the same compound?
A: 103 % of control

Q: What about the T/C [5] of the same compound?
A: 91 % of control

Q: And the T/C [6]?
A: 97 % of control

Q: How did the T/C [7] turn out when `O=c1[nH]cnc2c1nc([Se])n2C1OC(CO)C(O)C1O` (centres undefined) was run?
A: 102 % of control

Q: What about the T/C [8] of the same compound?
A: 107 % of control

Q: Which T/C [9] does the source give for `O=[N+]([O-])c1ccc(-c2ccccc2)cc1` here?
A: 102 % of control

Q: What about the T/C [10] of the same compound?
A: 105 % of control

Q: And the T/C [11]?
A: 105 % of control

Q: What does the source list for `Cc1ccccc1SCC#CCSc1ccccc1C`?
A: T/C [1]: 93 % of control; T/C [3]: 95 % of control; T/C [5]: 106 % of control

Q: What does the source list for `N#CN1CCOCC1`?
A: T/C (dose: 44.0 mg/kg/injection, schedule: Q01DX Z (ip), vehicle: saline): 101 % of control; T/C (dose: 66.0 mg/kg/injection, schedule: Q01DX Z (ip), vehicle: saline): 91 % of control; T/C (dose: 100.0 mg/kg/injection, schedule: Q01DX009 (ip), vehicle: saline): 97 % of control; T/C (dose: 100.0 mg/kg/injection, schedule: Q01DX Z (ip), vehicle: saline): 101 % of control; T/C (dose: 100.0 mg/kg/injection, schedule: Q04DX003 (ip), vehicle: saline): 95 % of control; T/C (dose: 200.0 mg/kg/injection, schedule: Q01DX009 (ip), vehicle: saline): 103 % of control; T/C (dose: 200.0 mg/kg/injection, schedule: Q04DX003 (ip), vehicle: saline): 105 % of control

Q: How did the T/C (dose: 0.5 mg/kg/injection, schedule: Q01DX001 (ip), vehicle: saline) turn out when `NC1C2C(CC(=O)O)OCC=C3CN4CCC1(C(=O)C(=O)O)C4CC32` (centres undefined) was run?
A: 101 % of control

Q: And the T/C (dose: 1.0 mg/kg/injection, schedule: Q01DX001 (ip), vehicle: saline)?
A: 101 % of control

Q: What about the T/C (dose: 2.0 mg/kg/injection, schedule: Q01DX001 (ip), vehicle: saline) of the same compound?
A: 102 % of control

Q: What about the T/C (dose: 4.0 mg/kg/injection, schedule: Q01DX001 (ip), vehicle: saline) of the same compound?
A: 106 % of control

Q: What does the source list for `CC(=O)OC1C(CF)OC(n2ccc(=O)[nH]c2=O)C1OC(C)=O` (centres undefined)?
A: T/C [7]: 105 % of control; T/C [8]: 123 % of control

Q: What does the source list for `BrCc1cc(CBr)c(CBr)cc1CBr`?
A: T/C (dose: 12.5 mg/kg/injection, schedule: Q01DX009 (ip), vehicle: acetone): 108 % of control; T/C (dose: 12.5 mg/kg/injection, schedule: Q04DX003 (ip), vehicle: saline): 97 % of control; T/C (dose: 25.0 mg/kg/injection, schedule: Q04DX003 (ip), vehicle: saline): 98 % of control and 114 % of control; T/C (dose: 50.0 mg/kg/injection, schedule: Q04DX003 (ip), vehicle: saline): 95 % of control

Q: `Cc1nc(C)c(-c2ccc([N+](=O)[O-])cc2)o1` was tested. Which T/C (dose: 100.0 mg/kg/injection, schedule: Q01DX001 (ip), vehicle: saline with Tween-80) did it give?
A: 105 % of control

Q: What about the T/C (dose: 200.0 mg/kg/injection, schedule: Q01DX001 (ip), vehicle: saline with Tween-80) of the same compound?
A: 105 % of control

Q: What about the T/C (dose: 400.0 mg/kg/injection, schedule: Q01DX001 (ip), vehicle: saline with Tween-80) of the same compound?
A: 102 % of control

Q: Which T/C [2] does the source give for `c1ccc(-c2sc(-c3ccccc3)c(-c3ccccc3)c2-c2ccccc2)cc1` here?
A: 93 % of control

Q: And the T/C [4]?
A: 95 % of control

Q: What about the T/C [6] of the same compound?
A: 95 % of control

Q: For `Nc1nc(NCCCc2ccccc2)c([N+](=O)[O-])c(=O)[nH]1`, which T/C (dose: 100.0 mg/kg/injection, schedule: Q01DX009 (ip), vehicle: saline with Tween-80) is on record?
A: 93 % of control

Q: And the T/C (dose: 200.0 mg/kg/injection, schedule: Q01DX009 (ip), vehicle: saline with Tween-80)?
A: 97 % of control

Q: How did the T/C (dose: 200.0 mg/kg/injection, schedule: Q04DX002 (ip), vehicle: saline with Tween-80) turn out when `CCOC(=O)C1C(=O)C=C(c2ccccc2)CC1c1ccccc1` (centres undefined) was run?
A: 90 % of control

Q: What about the T/C (dose: 400.0 mg/kg/injection, schedule: Q04DX002 (ip), vehicle: saline with Tween-80) of the same compound?
A: 97 % of control

Q: With `S=C(NCc1ccco1)Nc1cccc2ccccc12` as the compound, how does the T/C (dose: 100.0 mg/kg/injection, schedule: Q04DX002 (ip), vehicle: gum acacia) read?
A: 101 % of control

Q: And the T/C (dose: 200.0 mg/kg/injection, schedule: Q04DX002 (ip), vehicle: gum acacia)?
A: 88 % of control

Q: What about the T/C (dose: 400.0 mg/kg/injection, schedule: Q04DX002 (ip), vehicle: gum acacia) of the same compound?
A: 98 % of control

Q: How did the T/C [12] turn out when `Cc1nnc2c3ccccc3cnn12` was run?
A: 98 % of control

Q: What about the T/C (dose: 150.0 mg/kg/injection, schedule: Q01DX001 (ip), vehicle: carboxymethylcellulose (CMC)) of the same compound?
A: 97 % of control

Q: And the T/C (dose: 300.0 mg/kg/injection, schedule: Q01DX001 (ip), vehicle: carboxymethylcellulose (CMC))?
A: 98 % of control

Q: Which results are given for `O=S(=O)(/N=c1/ccc(NS(=O)(=O)c2ccccc2)cn1O)c1ccccc1`?
A: T/C (dose: 50.0 mg/kg/injection, schedule: Q01DX001 (ip), vehicle: Klucel (hydroxypropylcellulose) (HPC)): 96 % of control; T/C [1]: 102 % of control; T/C [3]: 98 % of control

Q: How did the T/C (dose: 75.0 mg/kg/injection, schedule: Q04DX003 (ip), vehicle: saline with Tween-80) turn out when `COc1c(N)ccc(-c2ccc(N)c(OC)c2Cl)c1Cl` was run?
A: 94 % of control

Q: How did the T/C (dose: 100.0 mg/kg/injection, schedule: Q04DX002 (ip), vehicle: saline) turn out when `CN(C)CC(Oc1ccccc1)c1ccccc1` (centres undefined) was run?
A: 98 % of control

Q: What does the source list for `CN(C)S(=O)(=O)c1ccc(NC(=O)OC(c2ccccc2)(c2ccccc2)c2ccccc2)cc1`?
A: T/C [9]: 96 % of control; T/C [10]: 92 % of control; T/C [11]: 96 % of control

Q: For `O=C(O)c1c(F)c(F)c(Oc2c(F)c(F)c(F)c(F)c2F)c(F)c1F`, which T/C [2] is on record?
A: 95 % of control

Q: What about the T/C [4] of the same compound?
A: 93 % of control

Q: `Clc1cc(Cl)c2nc(-c3ccc(Cl)c(Cl)c3)cc(C3CO3)c2c1` (centres undefined) was tested. Which T/C [9] did it give?
A: 94 % of control

Q: What about the T/C [10] of the same compound?
A: 105 % of control

Q: What about the T/C [11] of the same compound?
A: 100 % of control

Q: Which results are given for `Nc1ccc(S(=O)(=O)S(=O)(=O)c2ccc(N)cc2)cc1`?
A: T/C (dose: 100.0 mg/kg/injection, schedule: Q04DX003 (ip), vehicle: saline with Tween-80): 93 % of control; T/C (dose: 200.0 mg/kg/injection, schedule: Q04DX003 (ip), vehicle: saline with Tween-80): 86 % of control; T/C (dose: 400.0 mg/kg/injection, schedule: Q04DX003 (ip), vehicle: saline with Tween-80): 91 % of control

Q: With `CC/C(=C/c1ccccc1)C(N)=O` as the compound, how does the T/C (dose: 100.0 mg/kg/injection, schedule: Q01DX001 (ip), vehicle: steriod suspending solution) read?
A: 87 % of control

Q: And the T/C (dose: 200.0 mg/kg/injection, schedule: Q01DX001 (ip), vehicle: steriod suspending solution)?
A: 103 % of control

Q: Which T/C [12] does the source give for `COc1cc2c(cc1[N+](=O)[O-])-c1ccc([N+](=O)[O-])cc1/C2=N/NC(N)=S` here?
A: 101 % of control

Q: With `CCC1(c2ccccc2)CCN(C)C1` (centres undefined) as the compound, how does the T/C [12] read?
A: 93 % of control
